Measurements from ChEMBL document CHEMBL5465560, “Selectivity Literature for EUbOPEN Chemogenomic Library” (2024).

What was measured:
[1] = target: T1, Muscle, skeletal receptor tyrosine-protein kinase (Homo sapiens) (UniProt O15146); settings: at 10 µM
T1 sequence (whole entry): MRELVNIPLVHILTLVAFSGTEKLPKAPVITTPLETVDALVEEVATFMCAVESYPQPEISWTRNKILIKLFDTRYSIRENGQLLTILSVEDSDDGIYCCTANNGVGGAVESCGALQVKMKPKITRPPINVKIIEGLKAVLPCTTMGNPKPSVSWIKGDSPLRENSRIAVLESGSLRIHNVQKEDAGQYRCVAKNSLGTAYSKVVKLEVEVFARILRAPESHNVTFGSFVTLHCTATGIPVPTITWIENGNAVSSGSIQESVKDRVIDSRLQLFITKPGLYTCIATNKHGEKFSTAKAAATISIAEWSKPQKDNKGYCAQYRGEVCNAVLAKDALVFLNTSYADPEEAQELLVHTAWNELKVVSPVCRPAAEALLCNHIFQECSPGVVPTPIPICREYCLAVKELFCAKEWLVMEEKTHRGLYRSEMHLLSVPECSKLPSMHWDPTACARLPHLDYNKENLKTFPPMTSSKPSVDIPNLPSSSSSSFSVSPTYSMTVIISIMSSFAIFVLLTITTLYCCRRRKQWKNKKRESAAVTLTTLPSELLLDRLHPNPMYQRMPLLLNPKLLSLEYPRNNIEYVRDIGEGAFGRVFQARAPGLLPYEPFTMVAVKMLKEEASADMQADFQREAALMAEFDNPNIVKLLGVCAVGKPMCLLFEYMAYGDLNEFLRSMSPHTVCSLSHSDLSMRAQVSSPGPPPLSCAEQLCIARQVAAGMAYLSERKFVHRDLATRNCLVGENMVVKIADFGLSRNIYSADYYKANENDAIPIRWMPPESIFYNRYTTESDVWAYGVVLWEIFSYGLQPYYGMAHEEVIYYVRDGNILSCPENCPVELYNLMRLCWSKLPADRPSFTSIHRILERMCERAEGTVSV

[2] = target: T2, MAP/microtubule affinity-regulating kinase 4 (Homo sapiens) (UniProt Q96L34); assay: Selectivity interaction (KinomeScan (DiscoverX)) EUB0000655a MARK4; settings: at 10 µM
T2 sequence (whole entry): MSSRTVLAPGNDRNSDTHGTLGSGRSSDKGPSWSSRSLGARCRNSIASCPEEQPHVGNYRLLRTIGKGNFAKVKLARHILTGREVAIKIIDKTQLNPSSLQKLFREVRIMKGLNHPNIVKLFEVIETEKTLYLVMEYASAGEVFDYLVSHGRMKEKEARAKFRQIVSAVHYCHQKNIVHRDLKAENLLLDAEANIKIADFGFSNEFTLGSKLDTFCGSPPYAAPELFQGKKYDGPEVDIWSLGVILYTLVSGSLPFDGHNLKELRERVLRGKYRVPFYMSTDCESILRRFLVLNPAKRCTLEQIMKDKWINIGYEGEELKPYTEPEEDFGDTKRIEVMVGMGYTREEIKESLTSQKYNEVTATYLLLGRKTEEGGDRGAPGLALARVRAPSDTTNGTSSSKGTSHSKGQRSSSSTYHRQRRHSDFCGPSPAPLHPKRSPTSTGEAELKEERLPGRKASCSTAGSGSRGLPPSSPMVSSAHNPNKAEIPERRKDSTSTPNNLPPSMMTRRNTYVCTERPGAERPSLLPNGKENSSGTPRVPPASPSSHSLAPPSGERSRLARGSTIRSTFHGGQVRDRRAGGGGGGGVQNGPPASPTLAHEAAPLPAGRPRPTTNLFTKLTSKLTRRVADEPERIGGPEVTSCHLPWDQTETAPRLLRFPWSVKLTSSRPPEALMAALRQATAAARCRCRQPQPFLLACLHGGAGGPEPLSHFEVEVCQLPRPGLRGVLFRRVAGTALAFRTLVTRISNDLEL

[3] = test system: Epidermal growth factor receptor (Homo sapiens), P00533 [UNDEFINED MUTATION]; assay: Selectivity interaction (ProQinase) EUB0000171b EGFR; settings: at 1 µM
Epidermal growth factor receptor (Homo sapiens), P00533 [UNDEFINED MUTATION], sequence (P00533 whole entry, looked up, change not shown): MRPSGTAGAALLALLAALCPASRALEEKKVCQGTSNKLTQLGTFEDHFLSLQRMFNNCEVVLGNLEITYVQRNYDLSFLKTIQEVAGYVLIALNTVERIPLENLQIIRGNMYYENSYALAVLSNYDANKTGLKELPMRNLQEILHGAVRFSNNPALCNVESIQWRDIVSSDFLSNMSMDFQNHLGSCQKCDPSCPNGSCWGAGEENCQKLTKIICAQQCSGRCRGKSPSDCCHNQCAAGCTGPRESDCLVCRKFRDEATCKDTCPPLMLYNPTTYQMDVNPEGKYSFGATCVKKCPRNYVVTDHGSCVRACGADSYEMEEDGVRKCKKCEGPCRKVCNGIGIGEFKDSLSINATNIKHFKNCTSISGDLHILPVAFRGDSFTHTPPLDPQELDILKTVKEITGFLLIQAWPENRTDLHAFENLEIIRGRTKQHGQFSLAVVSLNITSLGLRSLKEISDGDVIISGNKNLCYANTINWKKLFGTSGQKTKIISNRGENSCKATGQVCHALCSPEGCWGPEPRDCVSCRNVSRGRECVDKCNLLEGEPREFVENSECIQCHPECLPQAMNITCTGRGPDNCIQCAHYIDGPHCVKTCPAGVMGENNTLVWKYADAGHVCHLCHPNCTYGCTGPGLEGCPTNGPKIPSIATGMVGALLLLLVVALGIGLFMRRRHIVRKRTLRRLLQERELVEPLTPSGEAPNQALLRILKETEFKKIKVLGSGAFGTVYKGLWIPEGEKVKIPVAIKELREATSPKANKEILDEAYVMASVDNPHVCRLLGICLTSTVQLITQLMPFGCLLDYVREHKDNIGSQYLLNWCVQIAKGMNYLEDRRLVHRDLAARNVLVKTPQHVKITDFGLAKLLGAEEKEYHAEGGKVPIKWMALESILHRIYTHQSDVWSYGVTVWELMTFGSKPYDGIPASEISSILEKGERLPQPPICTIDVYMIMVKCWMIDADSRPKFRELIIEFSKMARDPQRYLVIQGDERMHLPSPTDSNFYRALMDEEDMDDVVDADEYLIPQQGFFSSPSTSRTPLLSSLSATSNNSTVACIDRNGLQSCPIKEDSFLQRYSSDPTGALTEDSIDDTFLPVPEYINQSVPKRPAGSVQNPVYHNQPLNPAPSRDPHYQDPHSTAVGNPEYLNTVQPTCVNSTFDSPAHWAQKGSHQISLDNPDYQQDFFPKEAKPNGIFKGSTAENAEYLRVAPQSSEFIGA

[4] = target: Serine/threonine-protein kinase PAK 6 (Homo sapiens) (UniProt Q9NQU5); assay: Selectivity interaction (Kinase panel (Z-LYTE Assay)) EUB0001632a PAK6; settings: at 10 µM
Serine/threonine-protein kinase PAK 6 (Homo sapiens), sequence (Q9NQU5 whole entry, looked up): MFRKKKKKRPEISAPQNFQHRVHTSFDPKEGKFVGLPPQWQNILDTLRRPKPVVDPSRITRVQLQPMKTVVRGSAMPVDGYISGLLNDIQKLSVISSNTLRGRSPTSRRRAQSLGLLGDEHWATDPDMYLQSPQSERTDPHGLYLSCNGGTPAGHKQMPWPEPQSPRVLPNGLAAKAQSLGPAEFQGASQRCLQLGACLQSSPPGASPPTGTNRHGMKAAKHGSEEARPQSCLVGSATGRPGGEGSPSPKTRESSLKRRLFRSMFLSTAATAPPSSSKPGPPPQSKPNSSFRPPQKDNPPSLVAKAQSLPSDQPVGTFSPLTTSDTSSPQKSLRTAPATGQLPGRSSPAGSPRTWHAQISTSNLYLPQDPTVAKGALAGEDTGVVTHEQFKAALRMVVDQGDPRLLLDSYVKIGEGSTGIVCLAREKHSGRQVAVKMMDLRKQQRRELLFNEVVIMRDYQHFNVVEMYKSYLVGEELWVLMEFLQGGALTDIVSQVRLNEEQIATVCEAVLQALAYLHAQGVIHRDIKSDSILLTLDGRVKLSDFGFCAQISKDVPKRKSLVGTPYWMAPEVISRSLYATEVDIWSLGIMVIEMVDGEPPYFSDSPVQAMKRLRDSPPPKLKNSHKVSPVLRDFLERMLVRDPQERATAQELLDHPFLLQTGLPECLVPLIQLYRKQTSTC

[5] = target: Proto-oncogene tyrosine-protein kinase ROS (Homo sapiens) (UniProt P08922); assay: Selectivity interaction (Kinase panel (Z-LYTE Assay)) EUB0001632a ROS1; settings: at 10 µM
[6] = target: Ribosomal protein S6 kinase alpha-1 (Homo sapiens, UniProt Q15418); assay: Selectivity interaction (KinomeScan (DiscoverX)) EUB0000311b RPS6KA1; settings: at 1 µM
Ribosomal protein S6 kinase alpha-1, sequence (Q15418 whole entry): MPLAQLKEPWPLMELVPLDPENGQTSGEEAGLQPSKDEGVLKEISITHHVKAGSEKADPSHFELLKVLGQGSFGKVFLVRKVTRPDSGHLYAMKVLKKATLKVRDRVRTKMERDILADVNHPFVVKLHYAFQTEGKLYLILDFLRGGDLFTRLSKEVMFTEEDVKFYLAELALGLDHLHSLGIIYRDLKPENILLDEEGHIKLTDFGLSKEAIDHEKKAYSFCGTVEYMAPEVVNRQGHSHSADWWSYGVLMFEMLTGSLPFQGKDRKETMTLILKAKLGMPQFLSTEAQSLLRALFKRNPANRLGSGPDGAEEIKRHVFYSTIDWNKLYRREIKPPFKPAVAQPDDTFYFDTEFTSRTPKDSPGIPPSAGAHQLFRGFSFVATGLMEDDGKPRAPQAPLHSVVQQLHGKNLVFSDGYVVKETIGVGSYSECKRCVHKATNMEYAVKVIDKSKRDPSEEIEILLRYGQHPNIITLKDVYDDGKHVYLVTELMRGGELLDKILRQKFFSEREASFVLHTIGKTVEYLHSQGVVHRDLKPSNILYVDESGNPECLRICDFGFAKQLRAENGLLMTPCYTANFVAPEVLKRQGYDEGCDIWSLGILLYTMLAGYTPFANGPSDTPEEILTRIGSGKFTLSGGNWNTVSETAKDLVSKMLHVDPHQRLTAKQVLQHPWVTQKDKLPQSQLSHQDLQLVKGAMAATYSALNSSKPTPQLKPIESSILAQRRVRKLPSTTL

[7] = target: Ribosomal protein S6 kinase beta-1 (Homo sapiens, UniProt P23443); assay: Selectivity interaction (ActivX KiNativ screen (kinase selectivity in THP-1 cell lysates)) EUB0000639a RPS6KB1; type: subcellular; settings: lysate, at 5 µM
Ribosomal protein S6 kinase beta-1, sequence (P23443 whole entry, looked up): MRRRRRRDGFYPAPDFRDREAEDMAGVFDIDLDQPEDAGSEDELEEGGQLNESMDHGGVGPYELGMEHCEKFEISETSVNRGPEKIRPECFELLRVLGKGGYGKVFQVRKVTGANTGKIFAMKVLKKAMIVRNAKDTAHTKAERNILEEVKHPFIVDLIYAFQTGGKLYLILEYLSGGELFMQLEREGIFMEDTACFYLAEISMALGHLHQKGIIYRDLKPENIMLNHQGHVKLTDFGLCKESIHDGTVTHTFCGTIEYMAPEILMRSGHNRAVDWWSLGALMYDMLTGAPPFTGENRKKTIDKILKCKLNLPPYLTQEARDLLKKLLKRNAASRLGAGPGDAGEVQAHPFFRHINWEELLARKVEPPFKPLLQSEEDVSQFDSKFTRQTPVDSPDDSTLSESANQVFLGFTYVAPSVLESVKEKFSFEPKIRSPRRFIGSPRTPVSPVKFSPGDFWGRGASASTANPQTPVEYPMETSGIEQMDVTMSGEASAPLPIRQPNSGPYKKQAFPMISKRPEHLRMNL

D(2) dopamine receptor = D(2) dopamine receptor (Homo sapiens, UniProt P14416); assay: Selectivity interaction (Panel of non-epigenetic targets (kinases, GPCRs, ion channels, and transporters, Eurofins) ) EUB0000271b DRD2; settings: at 1 µM
D(2) dopamine receptor, sequence (P14416 whole entry): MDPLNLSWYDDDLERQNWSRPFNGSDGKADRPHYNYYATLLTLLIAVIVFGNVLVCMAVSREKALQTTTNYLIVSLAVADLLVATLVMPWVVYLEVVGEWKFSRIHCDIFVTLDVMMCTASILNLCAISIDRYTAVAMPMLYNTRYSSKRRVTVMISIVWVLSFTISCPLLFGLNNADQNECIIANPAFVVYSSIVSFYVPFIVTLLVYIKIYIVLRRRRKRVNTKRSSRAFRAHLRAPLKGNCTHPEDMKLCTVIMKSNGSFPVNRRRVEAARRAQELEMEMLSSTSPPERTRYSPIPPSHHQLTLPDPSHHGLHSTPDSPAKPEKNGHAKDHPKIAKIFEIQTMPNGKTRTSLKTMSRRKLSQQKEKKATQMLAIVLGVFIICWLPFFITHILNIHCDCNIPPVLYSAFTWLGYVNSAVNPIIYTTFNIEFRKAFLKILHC

[8] = target: Dual specificity tyrosine-phosphorylation-regulated kinase 1B (Homo sapiens, UniProt Q9Y463); assay: Selectivity interaction (KinomeScan (DiscoverX)) EUB0001619a DYRK1B; settings: at 1 µM
Dual specificity tyrosine-phosphorylation-regulated kinase 1B, sequence (Q9Y463 whole entry, looked up): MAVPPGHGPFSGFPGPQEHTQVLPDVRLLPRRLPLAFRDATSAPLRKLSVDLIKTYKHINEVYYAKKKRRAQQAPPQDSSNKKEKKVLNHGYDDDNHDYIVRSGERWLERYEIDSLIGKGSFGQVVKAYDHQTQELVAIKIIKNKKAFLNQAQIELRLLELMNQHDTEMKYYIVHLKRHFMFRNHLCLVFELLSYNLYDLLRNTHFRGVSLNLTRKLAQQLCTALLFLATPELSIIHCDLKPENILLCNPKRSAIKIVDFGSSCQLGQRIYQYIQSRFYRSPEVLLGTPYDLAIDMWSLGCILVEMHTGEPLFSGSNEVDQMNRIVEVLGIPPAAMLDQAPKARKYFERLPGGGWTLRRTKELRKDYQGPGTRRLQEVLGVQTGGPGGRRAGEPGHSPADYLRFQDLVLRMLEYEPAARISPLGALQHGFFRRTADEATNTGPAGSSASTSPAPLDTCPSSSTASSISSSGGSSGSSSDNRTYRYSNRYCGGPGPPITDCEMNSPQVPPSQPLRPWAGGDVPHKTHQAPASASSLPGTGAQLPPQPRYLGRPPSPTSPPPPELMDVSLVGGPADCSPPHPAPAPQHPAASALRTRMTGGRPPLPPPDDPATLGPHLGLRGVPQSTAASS

CCN(CC)CCCCNc1ncc2cc(-c3cc(OC)cc(OC)c3)c(NC(=O)NC(C)(C)C)nc2n1
% of control [1]: 100%

CN(C)CCOc1ccc(-c2nc(-c3ccncc3)c(-c3ccc4c(c3)CC/C4=N\O)[nH]2)cc1
% of control [2]: 100%

C=CC(=O)Nc1cccc(C(=O)Nc2ccc(Nc3cc(-c4[nH]c(SC)nc4C)ccn3)cc2)c1
% of control [3]: 88%

Cn1cc(-n2cnc3c(NCc4nc5cc(Cl)c(Cl)cc5[nH]4)nc(N4CCOCC4)nc32)cn1
% of control [4]: -4.06%
% of control [5]: 0.847%

CCc1ccccc1C(=O)Nc1n[nH]c2c(C)c(F)c(C3C(C#N)=C(C)N(C)C(C)=C3C#N)cc12 [BAY-3827]
% of control [6]: 1.8%

CC[C@@H]1[C@H](F)C(=O)N[C@@H]1COc1nccc2cc(C(N)=O)c(OC)cc12 [ZIMLOVISERTIB]
% of inhibition [7]: 3.9%

Cc1cc(C)cc([C@@H]2c3cc(C)ccc3NC(=O)CN2C(=O)c2ccc(Br)s2)c1
% of inhibition (D(2) dopamine receptor): -1%

N#Cc1cccc(-c2c[nH]c3ncnc(N4CCOCC4)c23)c1
% of control [8]: 70%
